“Also recorded” adds a separate entry of the source.
How the values were obtained:
Assay in all cases: Antimicrobial photodynamic protocol, viable cell count after laser exposure
Type in all cases: cell-based
[1] = test system: Escherichia coli (NCTC10418); conditions: E. coli; for Antimicrobial activity (Log10 reduction of viable cells): green laser, 3 min laser exposure
Protocol: (§1) The organisms used in this study were Escherichia coli (NCTC10418) and Staphylococcus epidermidis (ATCC12228), Pseudomonas aeruginosa (NCIMB10548), Methicillin Resistant Staphylococcus aureus (NCTC12493), Streptococcus pyogenes (ATCC19615) and Acinetobacter baumannii (NCIMB9214); they were stored at −80° C. These organisms were subcultured, when needed, on Brain Heart Infusion (BHI) Agar overnight aerobically at 37° C. The plates were then stored at 4° C. for no more than two weeks. Bacterial suspensions used for the experiments were grown in Brain Heart Infusion (BHI) broth after inoculation with a loopful of cells from a single colony on a BHI plate and incubated aerobically for 24 h at 37° C. statically. These overnight cultures were then diluted 1 in 100 in PBS. The resulting bacterial suspension contained approximately 10^6 CFU/mL. Each cell suspension was used to disperse pure PS, e.g. PBAE-TBO, to concentrations of 0.2 mg/mL or PBAEs-PS derivatives to an equivalent PS concentration.
(§2) 200 μL aliquots of the resulting suspension were immediately poured in a GREINER 96 U-BOTTOM well plate. The well plate was then irradiated with a laser light (633 nm) using a 500 mW red laser (RRL-635 nm-500 mW-1080060, Changchun New Industries Optoelectronics, China) or a 500 mW green laser (MGL-FN-532 nm-500 mW-15097031, Changchun New Industries Optoelectronics, China) for different time periods (between 5 sec to 3 min). The red laser was employed for TBO while the green laser was used for RB and ERY.
(§3) After exposure the bacterial cells (L+S+) were counted through serial dilutions and then plating on BHI Agar. Along this test, different experiments were performed including the testing of dark toxicity (labelled with L−S+), samples exposed uniquely to laser light (L+S−) or samples not expose to either laser light and PBAE (L−S−).
(§4) Through the experiment prepared samples, well plates and inoculated plates were immediately covered with aluminium foil to reduce biased measuring results due to exposure of any light besides the laser. All plates were incubated after the experiment for 24 hours at 37° C. All experiments were performed on three independent cultures.

[2] = test system: Methicillin Resistant Staphylococcus aureus (NCTC12493); conditions: for Antimicrobial activity (Log10 reduction of viable cells): green laser, 5 sec, MRSA NCTC12493
Protocol: as §1, §2, §3, §4

[3] = test system: Acinetobacter baumannii (NCIMB9214); conditions: TBO series, A. baumannii
Protocol: as §1, §2, §3, §4

[4] = test system: Pseudomonas aeruginosa (NCIMB10548); conditions: TBO series, P. aeruginosa
Protocol: as §1, §2, §3, §4

[5] = test system: Staphylococcus epidermidis (ATCC12228); conditions: TBO series
Protocol: as §1, §2, §3, §4

[6] = test system: Streptococcus pyogenes (ATCC19615); conditions: TBO series
Protocol: as §1, §2, §3, §4

[7] = L+S+, red laser, 0.2 mg/mL TBO equivalent

## O=C1OC2(c3ccccc31)c1cc(I)c(O)c(I)c1Oc1c2cc(I)c(O)c1I [ERY, Erythrosin B]
[1]; ERY series
  Antimicrobial activity (Log10 reduction of viable cells): exhibit antimicrobial activity; also recorded: not as effective as RB
[2]; ERY series
  Antimicrobial activity (Log10 reduction of viable cells): exhibit antimicrobial activity; also recorded: not as effective as RB

## O=C([O-])c1c(Cl)c(Cl)c(Cl)c(Cl)c1-c1c2cc(I)c(=O)c(I)c-2oc2c(I)c([O-])c(I)cc12.[Na+].[Na+] [RB, Rose Bengal]
[1]; RB series
  Antimicrobial activity (Log10 reduction of viable cells): exhibit antimicrobial activity
[2]; RB series
  Antimicrobial activity (Log10 reduction of viable cells): exhibit antimicrobial activity

## Cc1cc2nc3ccc(=[N+](C)C)cc-3sc2cc1N.[Cl-] [TBO, Toluidine Blue O]
[3]; [7]
  Antimicrobial effect of laser exposure (reduction of viable cells): tendencies of progressive reduction
[3]; L-S+
  Cell reduction without irradiation (dark toxicity): did not return any cell reduction
[1]; TBO series, L+S+, red laser, 0.2 mg/mL TBO equivalent
  Antimicrobial effect of laser exposure (reduction of viable cells): tendencies of progressive reduction
[1]; TBO series, L-S+
  Cell reduction without irradiation (dark toxicity): did not return any cell reduction
[2]; TBO series, L+S+, red laser, 0.2 mg/mL TBO equivalent, MRSA
  Antimicrobial effect of laser exposure (reduction of viable cells): tendencies of progressive reduction
[2]; TBO series, L-S+, MRSA
  Cell reduction without irradiation (dark toxicity): did not return any cell reduction
[4]; [7]
  Antimicrobial effect of laser exposure (reduction of viable cells): tendencies of progressive reduction
[4]; L-S+
  Cell reduction without irradiation (dark toxicity): did not return any cell reduction
[5]; [7]
  Antimicrobial effect of laser exposure (reduction of viable cells): tendencies of progressive reduction
[5]; L-S+
  Cell reduction without irradiation (dark toxicity): did not return any cell reduction
[6]; [7]
  Antimicrobial effect of laser exposure (reduction of viable cells): tendencies of progressive reduction
[6]; L-S+
  Cell reduction without irradiation (dark toxicity): did not return any cell reduction

— patent publication US20200079906A1, “PHOTODYNAMIC THERAPY COMPLEX” (University College Cardiff Consultants Limited, priority 2015, published 2020)
